Reference: paper PMC11992225, “Antibacterial compounds against non-growing and intracellular bacteria” (npj Antimicrobials and Resistance, 2025)
Values after ≈ are worked out from the molar mass of the structure shown. Values joined by “and” are separate entries in the source; they are usually repeats but may differ in a detail not shown here. Identical values can stand only once.

Tests used:
S. aureus DSM2569 = assay: MIC, standard microdilution assay, growing S. aureus; assay type: cell-based, Staphylococcus aureus; settings: Staphylococcus aureus, DSM2569; S. aureus; CA-MHB pH 7.4; read-out: MIC (μM) CA-MHB
Outline: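 Broth microdilution was used throughout. UPEC, P. aeruginosa and S. aureus were tested in CA-MHB buffered with 40 mM HEPES (pH 7.4); UPEC was additionally tested in LPM with 30 mM MES (pH 5.5). S. flexneri was grown in TSB. All determinations were run in triplicate.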

[1] = tested on: non-growing P. aeruginosa DSM1117; assay: Dose-dependent killing analysis (CFU spot-plating) of stationary-phase P. aeruginosa; assay type: cell-based, Pseudomonas aeruginosa; settings: for killing, average Δlog10(CFU/ml) / log10(CFU/ml) of treated nongrowing bacteria (single replicates): P. aeruginosa; for log10(CFU/ml) of treated nongrowing bacteria (single replicates): before treatment 8.887
Procedure: The cultures were grown and treated for 24 h in 1:4 CA-MHB (pH 7.4).
For survival analysis, bacteria were cultivated as described for the dose–response dilution-regrowth assay. Assays with UPEC were conducted at the CBCS screening facility using 96-well plates with a 200 μl sample volume, and compounds were dispensed using the Echo® (Labcyte) system. P. aeruginosa and S. aureus samples were treated according to the protocol used for the dilution-regrowth experiments. Treated samples were serially diluted 10-fold in PBS, and 10 μl drops were spot-plated onto rectangular LB agar plates using either a Beckman NXP robot (for UPEC) or an Integra VIAFLO96 electronic pipette (for P. aeruginosa and S. aureus). The LB agar plates were incubated overnight at 37 °C and scanned. Colonies were counted at the spots of the lowest dilution where individual colonies could be accurately distinguished. Each colony was manually marked on a separate image layer using the GNU Image Manipulation Program, and counted using NIST’s Integrated Colony Enumerator (NICE 1.4) software. The experiments were performed in three biological replicates.

non-growing UPEC CFT073 [2] = assay: Dilution-regrowth assay (screen, hit validation, dose-response) on stationary-phase UPEC; assay type: cell-based, Escherichia coli; settings: Escherichia coli; E. coli, pH 7.4; regrowth delay of non-growing bacteria, 1:4 CA-MHB, 24 h treatment, OD600 6 h after 2500-fold dilution; read-out: EC50
Outline: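 Regrowth (OD600 after 6 h, 37 °C) of diluted non-growing CFT073, following 24 h compound treatment of 24 h stationary cultures, defines activity relative to untreated control. Screen at 20 µM, validation at 20, 10, 5 µM (duplicates), dose–response in three biological replicates fitted by five-parameter logistic.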

non-growing UPEC CFT073 [3] = assay: Dose-dependent killing analysis (CFU spot-plating) of stationary-phase UPEC; assay type: cell-based, Escherichia coli; settings: for killing, average Δlog10(CFU/ml) / log10(CFU/ml) of treated nongrowing bacteria (single replicates): E. coli in 1:4 CA-MHB (pH 7.4); for log10(CFU/ml) of treated nongrowing bacteria (single replicates): before treatment 8.977
Outline: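 Killing assessed by CFU counts: overnight 37 °C LB agar spot plates (10 μl drops of 10-fold PBS dilutions) scored at the lowest dilution with distinct colonies. Samples were compound-treated non-growing UPEC CFT073, 200 μl per well. Performed as three biological replicates.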

CC[C@H]1OC(=O)[C@@](C)(F)C(=O)[C@H](C)[C@@H](O[C@@H]2O[C@H](C)C[C@H](N(C)C)[C@H]2O)[C@](C)(OC)C[C@@H](C)C(=O)[C@H](C)[C@H]2N(CCCCn3cc(-c4cccc(N)c4)nn3)C(=O)O[C@]12C [Solithromycin]
MIC (S. aureus DSM2569): 0.05 µM (≈ 0.0423 µg/mL)
reduction of bacterial counts, stationary phase P. aeruginosa ([1]; at 0.5 µM, 24 h treatment): more than four
reduction of bacterial counts, non-growing P. aeruginosa ([1]; at 2.5 µM, 1:4 CA-MHB pH 7.4, 24 h treatment): more than four
killing of non-growing P. aeruginosa ([1]; at 2.5 µM, 24 h treatment): > 4 log10
reduction of bacterial counts, non-growing P. aeruginosa ([1]; at 10 µM, 24 h treatment): more than four
EC50 (non-growing UPEC CFT073 [2]): 0.288 µM
bactericidal activity against non-growing UPEC (CFU counting) (non-growing UPEC CFT073 [3]; 24 h treatment of stationary phase culture): did not kill

C[C@@H]1CN(c2c(F)c(N)c3c(=O)c(C(=O)O)cn(C4CC4)c3c2F)C[C@H](C)N1 [Sparfloxacin]
MIC (S. aureus DSM2569): 0.25 µM (≈ 0.0981 µg/mL)
killing, average Δlog10(CFU/ml) ([1]; drug concentration 0.1): 0.268 log10(CFU/ml)
log10(CFU/ml) of treated nongrowing bacteria (single replicates) ([1]; drug concentration 0.1): 8.602 log10(CFU/ml) and 9.079 log10(CFU/ml) and 8.176 log10(CFU/ml)
killing, average Δlog10(CFU/ml) ([1]; drug concentration 0.5): 0.923 log10(CFU/ml)
log10(CFU/ml) of treated nongrowing bacteria (single replicates) ([1]; drug concentration 0.5): 8.114 log10(CFU/ml) and 8.000 log10(CFU/ml) and 7.778 log10(CFU/ml)
killing, average Δlog10(CFU/ml) ([1]; drug concentration 2.5): 3.104 log10(CFU/ml)
log10(CFU/ml) of treated nongrowing bacteria (single replicates) ([1]; drug concentration 2.5): 5.903 log10(CFU/ml) and 6.845 log10(CFU/ml) and 4.602 log10(CFU/ml)
killing, average Δlog10(CFU/ml) ([1]; drug concentration 10): 4.887 log10(CFU/ml)
log10(CFU/ml) of treated nongrowing bacteria (single replicates) ([1]; drug concentration 10): =<4 log10(CFU/ml)
EC50 (non-growing UPEC CFT073 [2]): 6.33 µM
killing, average Δlog10(CFU/ml) (non-growing UPEC CFT073 [3]; drug concentration 0.25): 0.241 log10(CFU/ml)
log10(CFU/ml) of treated nongrowing bacteria (single replicates) (non-growing UPEC CFT073 [3]; drug concentration 0.25): 8.954 log10(CFU/ml) and 8.778 log10(CFU/ml) and 8.477 log10(CFU/ml)
killing, average Δlog10(CFU/ml) (non-growing UPEC CFT073 [3]; drug concentration 0.5): 0.055 log10(CFU/ml)
log10(CFU/ml) of treated nongrowing bacteria (single replicates) (non-growing UPEC CFT073 [3]; drug concentration 0.5): 9.114 log10(CFU/ml) and 8.699 log10(CFU/ml) and 8.954 log10(CFU/ml)
killing, average Δlog10(CFU/ml) (non-growing UPEC CFT073 [3]; drug concentration 1): 0.246 log10(CFU/ml)
log10(CFU/ml) of treated nongrowing bacteria (single replicates) (non-growing UPEC CFT073 [3]; drug concentration 1): 9.114 log10(CFU/ml) and 8.301 log10(CFU/ml) and 8.778 log10(CFU/ml)
killing, average Δlog10(CFU/ml) (non-growing UPEC CFT073 [3]; drug concentration 2.5): 0.077 log10(CFU/ml)
log10(CFU/ml) of treated nongrowing bacteria (single replicates) (non-growing UPEC CFT073 [3]; drug concentration 2.5): 9.380 log10(CFU/ml) and 8.477 log10(CFU/ml) and 8.845 log10(CFU/ml)
killing, average Δlog10(CFU/ml) (non-growing UPEC CFT073 [3]; drug concentration 5): 0.562 log10(CFU/ml)
log10(CFU/ml) of treated nongrowing bacteria (single replicates) (non-growing UPEC CFT073 [3]; drug concentration 5): 8.602 log10(CFU/ml) and 8.342 log10(CFU/ml) and 8.301 log10(CFU/ml)
killing, average Δlog10(CFU/ml) (non-growing UPEC CFT073 [3]; drug concentration 10): 1.084 log10(CFU/ml)
log10(CFU/ml) of treated nongrowing bacteria (single replicates) (non-growing UPEC CFT073 [3]; drug concentration 10): 8.301 log10(CFU/ml) and 7.602 log10(CFU/ml) and 7.778 log10(CFU/ml)
